Tested on: cynomolgus monkeys
Assay: 4-week safety study: necropsy, gross pathology and organ weights;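 note: daily nasogastric dosing for 28 days, organs weighed at necropsy on day 28 or after a 28-day drug-free recovery (day 56), relative weights expressed as percent of body or brain weight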
Procedure: Cynomolgus monkeys (5/sex/group) were selected using a computerized randomization procedure based on body weight, and the compound of Formula I was administered to the cynomolgus monkeys by nasogastric feeding at dose levels of 0 (control), 20, 100, 450 mg/kg/day in a volume of 5 ml/kg. Individual dose volumes were adjusted weekly based on body weight of animals. For all the groups, 2/3 of the animals were randomly selected and euthanized on day 28. The remaining animals were euthanized after 28-day drug free period.
A complete gross necropsy was conducted on all animals by visual inspection at the end of the exposure period (day 28) and the recovery phase (day 56). The following selected organs were trimmed, weighed and evaluated in terms of absolute weight and as a percentage of final body weight or brain weight: brain, heart, kidney, liver, spleen, thymus, testes, epididymides, uterus, ovaries, adrenals and thyroid (including the parathyroid). The following tissues were preserved in 10% neutral buffered formalin: brain, pituitary gland, thyroid (including the parathyroid), trachea, heart, pancreas, spleen, adrenal glands, prostate, ovaries, uterus (including cervix uteri and oviduct), vagina, testes, epididymides, seminal vesicle, esophagus, duodenum, jejunum, ileum, cecum, colon, rectum, mesenteric lymph nodes, Peyer's patches, submaxillary lymph nodes, aorta, eyes, skeletal muscle, sciatic nerve, femur (including metaphysis), mammary gland, sternum, salivary glands, spinal cord, urinary bladder, lung (including the bronchi), liver, kidneys, stomach, bone marrow (sternal), thymus, sternum, gallbladder, any gross lesions or masses. The lung tissue was inflated with fixative at the time of necropsy. All the preserved tissues were paraffin embedded, sectioned, stained with hematoxylin and eosin (HE) and examined microscopically. Bone marrow cellular morphology examination was conducted with both smear (sternum) and paraffin-embedded sternum section.
For each sex, body weight, rectal temperature, ECG, organ weight, hematological parameters and serum biochemical data were analyzed with a statistical software SAS 9.3. Firstly homogeneity of variance was analyzed using Levene's test. If P>0.05, the one-way ANOVA analysis was employed. If P<0.05, the Kruskal-Wallis test was used. If the resulting ANOVA p-value was <0.05, a comparison of each group using the Dunnett T test was performed. If the resulting Kruskal-Wallis test p-value was <0.05, then the Dunnett T test was performed after data rank conversion.

COC(=O)NCCCn1nc([C@@H](C)N(C(=O)[C@H]2CNCCO2)C2CC2)c2ccc(C)nc21 [compound of Formula I]
Liver Absolute weight (Female, 20 mg/kg, d 28): 58.37 ± 7.38 g
Liver Relative weight (/body weight) (Female, 20 mg/kg, d 28): 2.06 ± 0.22
Liver Relative weight (/brain weight) (Female, 20 mg/kg, d 28): 90.10 ± 7.72
Thymus Absolute weight (Female, 20 mg/kg, d 28): 1.23 ± 0.40 g
Thymus Relative weight (/body weight) (Female, 20 mg/kg, d 28): 0.04 ± 0.01
Thymus Relative weight (/brain weight) (Female, 20 mg/kg, d 28): 1.87 ± 0.46
Uterus Absolute weight (Female, 20 mg/kg, d 28): 5.97 ± 1.20 g
Uterus Relative weight (/body weight) (Female, 20 mg/kg, d 28): 0.21 ± 0.04
Uterus Relative weight (/brain weight) (Female, 20 mg/kg, d 28): 9.19 ± 1.57
kidney Absolute weight (Female, 20 mg/kg, d 28): 12.20 ± 2.23 g
kidney Relative weight (/body weight) (Female, 20 mg/kg, d 28): 0.43 ± 0.07
kidney Relative weight (/brain weight) (Female, 20 mg/kg, d 28): 18.73 ± 1.74
Liver Absolute weight (Female, 20 mg/kg, d 56): 68.35 ± 3.32 g
Liver Relative weight (/body weight) (Female, 20 mg/kg, d 56): 2.01 ± 0.07
Liver Relative weight (/brain weight) (Female, 20 mg/kg, d 56): 104.00 ± 10.62
Thymus Absolute weight (Female, 20 mg/kg, d 56): 2.00 ± 0.71 g
Thymus Relative weight (/body weight) (Female, 20 mg/kg, d 56): 0.06 ± 0.02
Thymus Relative weight (/brain weight) (Female, 20 mg/kg, d 56): 3.07 ± 1.24
Uterus Absolute weight (Female, 20 mg/kg, d 56): 11.30 ± 3.25 g
Uterus Relative weight (/body weight) (Female, 20 mg/kg, d 56): 0.33 ± 0.07
Uterus Relative weight (/brain weight) (Female, 20 mg/kg, d 56): 17.30 ± 5.86
kidney Absolute weight (Female, 20 mg/kg, d 56): 13.75 ± 0.78 g
kidney Relative weight (/body weight) (Female, 20 mg/kg, d 56): 0.41 ± 0.06
kidney Relative weight (/brain weight) (Female, 20 mg/kg, d 56): 20.86 ± 0.06
Liver Absolute weight (Female, 100 mg/kg, d 28): 57.60 ± 4.25 g
Liver Relative weight (/body weight) (Female, 100 mg/kg, d 28): 1.96 ± 0.13
Liver Relative weight (/brain weight) (Female, 100 mg/kg, d 28): 96.55 ± 7.51
Thymus Absolute weight (Female, 100 mg/kg, d 28): 0.73 ± 0.50 g
Thymus Relative weight (/body weight) (Female, 100 mg/kg, d 28): 0.02 ± 0.02
Thymus Relative weight (/brain weight) (Female, 100 mg/kg, d 28): 1.18 ± 0.73
Uterus Absolute weight (Female, 100 mg/kg, d 28): 7.03 ± 0.94 g
Uterus Relative weight (/body weight) (Female, 100 mg/kg, d 28): 0.24 ± 0.03
Uterus Relative weight (/brain weight) (Female, 100 mg/kg, d 28): 11.84 ± 2.02
kidney Absolute weight (Female, 100 mg/kg, d 28): 11.67 ± 0.71 g
kidney Relative weight (/body weight) (Female, 100 mg/kg, d 28): 0.40 ± 0.02
kidney Relative weight (/brain weight) (Female, 100 mg/kg, d 28): 19.61 ± 1.86
Liver Absolute weight (Female, 100 mg/kg, d 56): 68.45 ± 20.01 g
Liver Relative weight (/body weight) (Female, 100 mg/kg, d 56): 1.86 ± 0.37
Liver Relative weight (/brain weight) (Female, 100 mg/kg, d 56): 104.90 ± 37.06
Thymus Absolute weight (Female, 100 mg/kg, d 56): 2.35 ± 0.49 g
Thymus Relative weight (/body weight) (Female, 100 mg/kg, d 56): 0.07 ± 0.02
Thymus Relative weight (/brain weight) (Female, 100 mg/kg, d 56): 3.54 ± 0.52
Uterus Absolute weight (Female, 100 mg/kg, d 56): 8.30 ± 3.39 g
Uterus Relative weight (/body weight) (Female, 100 mg/kg, d 56): 0.23 ± 0.12
Uterus Relative weight (/brain weight) (Female, 100 mg/kg, d 56): 12.44 ± 4.34
kidney Absolute weight (Female, 100 mg/kg, d 56): 14.15 ± 2.33 g
kidney Relative weight (/body weight) (Female, 100 mg/kg, d 56): 0.39 ± 0.03
kidney Relative weight (/brain weight) (Female, 100 mg/kg, d 56): 21.60 ± 4.92
Liver Absolute weight (Female, 450 mg/kg, d 28): 69.40 ± 3.68 g
Liver Relative weight (/body weight) (Female, 450 mg/kg, d 28): 2.78 ± 0.31
Liver Relative weight (/brain weight) (Female, 450 mg/kg, d 28): 112.03 ± 12.42
Thymus Absolute weight (Female, 450 mg/kg, d 28): 0.50 ± 0.14 g
Thymus Relative weight (/body weight) (Female, 450 mg/kg, d 28): 0.02 ± 0.01
Thymus Relative weight (/brain weight) (Female, 450 mg/kg, d 28): 0.81 ± 0.27
Uterus Absolute weight (Female, 450 mg/kg, d 28): 3.50 ± 0.14 g
Uterus Relative weight (/body weight) (Female, 450 mg/kg, d 28): 0.14 ± 0.01
Uterus Relative weight (/brain weight) (Female, 450 mg/kg, d 28): 5.63 ± 0.10
kidney Absolute weight (Female, 450 mg/kg, d 28): 12.95 ± 0.07 g
kidney Relative weight (/body weight) (Female, 450 mg/kg, d 28): 0.52 ± 0.03
kidney Relative weight (/brain weight) (Female, 450 mg/kg, d 28): 20.87 ± 1.10
Liver Absolute weight (Female, 450 mg/kg, d 56): 72.40 ± 11.74 g
Liver Relative weight (/body weight) (Female, 450 mg/kg, d 56): 2.04 ± 0.05
Liver Relative weight (/brain weight) (Female, 450 mg/kg, d 56): 109.03 ± 13.64
Thymus Absolute weight (Female, 450 mg/kg, d 56): 1.40 ± 0.14 g
Thymus Relative weight (/body weight) (Female, 450 mg/kg, d 56): 0.04 ± 0.01
Thymus Relative weight (/brain weight) (Female, 450 mg/kg, d 56): 2.12 ± 0.29
Uterus Absolute weight (Female, 450 mg/kg, d 56): 9.60 ± 2.40 g
Uterus Relative weight (/body weight) (Female, 450 mg/kg, d 56): 0.27 ± 0.03
Uterus Relative weight (/brain weight) (Female, 450 mg/kg, d 56): 14.43 ± 3.09
kidney Absolute weight (Female, 450 mg/kg, d 56): 14.75 ± 1.91 g
kidney Relative weight (/body weight) (Female, 450 mg/kg, d 56): 0.42 ± 0.00
kidney Relative weight (/brain weight) (Female, 450 mg/kg, d 56): 22.23 ± 2.05
Liver Absolute weight (Male, 20 mg/kg, d 28): 69.03 ± 2.87 g
Liver Relative weight (/body weight) (Male, 20 mg/kg, d 28): 1.82 ± 0.21
Liver Relative weight (/brain weight) (Male, 20 mg/kg, d 28): 103.68 ± 11.79
Thymus Absolute weight (Male, 20 mg/kg, d 28): 1.10 ± 0.20 g
Thymus Relative weight (/body weight) (Male, 20 mg/kg, d 28): 0.03 ± 0.01
Thymus Relative weight (/brain weight) (Male, 20 mg/kg, d 28): 1.67 ± 0.43
kidney Absolute weight (Male, 20 mg/kg, d 28): 14.30 ± 1.42 g
kidney Relative weight (/body weight) (Male, 20 mg/kg, d 28): 0.37 ± 0.02
kidney Relative weight (/brain weight) (Male, 20 mg/kg, d 28): 21.46 ± 2.99
Liver Absolute weight (Male, 20 mg/kg, d 56): 71.25 ± 1.77 g
Liver Relative weight (/body weight) (Male, 20 mg/kg, d 56): 1.44 ± 0.02
Liver Relative weight (/brain weight) (Male, 20 mg/kg, d 56): 100.96 ± 1.74
Thymus Absolute weight (Male, 20 mg/kg, d 56): 2.95 ± 0.07 g
Thymus Relative weight (/body weight) (Male, 20 mg/kg, d 56): 0.06 ± 0.00
Thymus Relative weight (/brain weight) (Male, 20 mg/kg, d 56): 4.18 ± 0.08
kidney Absolute weight (Male, 20 mg/kg, d 56): 16.40 ± 3.11 g
kidney Relative weight (/body weight) (Male, 20 mg/kg, d 56): 0.33 ± 0.06
kidney Relative weight (/brain weight) (Male, 20 mg/kg, d 56): 23.16 ± 3.43
Liver Absolute weight (Male, 100 mg/kg, d 28): 72.93 ± 14.69 g
Liver Relative weight (/body weight) (Male, 100 mg/kg, d 28): 1.83 ± 0.25
Liver Relative weight (/brain weight) (Male, 100 mg/kg, d 28): 100.31 ± 9.48
Thymus Absolute weight (Male, 100 mg/kg, d 28): 1.57 ± 0.90 g
Thymus Relative weight (/body weight) (Male, 100 mg/kg, d 28): 0.04 ± 0.03
Thymus Relative weight (/brain weight) (Male, 100 mg/kg, d 28): 2.27 ± 1.44
kidney Absolute weight (Male, 100 mg/kg, d 28): 15.13 ± 3.62 g
kidney Relative weight (/body weight) (Male, 100 mg/kg, d 28): 0.37 ± 0.06
kidney Relative weight (/brain weight) (Male, 100 mg/kg, d 28): 20.85 ± 3.95
Liver Absolute weight (Male, 100 mg/kg, d 56): 84.75 ± 5.59 g
Liver Relative weight (/body weight) (Male, 100 mg/kg, d 56): 1.76 ± 0.06
Liver Relative weight (/brain weight) (Male, 100 mg/kg, d 56): 115.98 ± 8.59
Thymus Absolute weight (Male, 100 mg/kg, d 56): 2.45 ± 0.35 g
Thymus Relative weight (/body weight) (Male, 100 mg/kg, d 56): 0.05 ± 0.01
Thymus Relative weight (/brain weight) (Male, 100 mg/kg, d 56): 3.33 ± 0.02
kidney Absolute weight (Male, 100 mg/kg, d 56): 17.85 ± 1.91 g
kidney Relative weight (/body weight) (Male, 100 mg/kg, d 56): 0.37 ± 0.03
kidney Relative weight (/brain weight) (Male, 100 mg/kg, d 56): 24.36 ± 0.80
Liver Absolute weight (Male, 450 mg/kg, d 28): 94.37 ± 12.72 g
Liver Relative weight (/body weight) (Male, 450 mg/kg, d 28): 2.42 ± 0.20
Liver Relative weight (/brain weight) (Male, 450 mg/kg, d 28): 135.54 ± 14.14
Thymus Absolute weight (Male, 450 mg/kg, d 28): 0.90 ± 0.10 g
Thymus Relative weight (/body weight) (Male, 450 mg/kg, d 28): 0.02 ± 0.01
Thymus Relative weight (/brain weight) (Male, 450 mg/kg, d 28): 1.30 ± 0.20
kidney Absolute weight (Male, 450 mg/kg, d 28): 16.77 ± 2.31 g
kidney Relative weight (/body weight) (Male, 450 mg/kg, d 28): 0.43 ± 0.03
kidney Relative weight (/brain weight) (Male, 450 mg/kg, d 28): 24.07 ± 2.45
Liver Absolute weight (Male, 450 mg/kg, d 56): 80.90 ± 4.95 g
Liver Relative weight (/body weight) (Male, 450 mg/kg, d 56): 1.64 ± 0.22
Liver Relative weight (/brain weight) (Male, 450 mg/kg, d 56): 119.80 ± 2.56
Thymus Absolute weight (Male, 450 mg/kg, d 56): 2.20 ± 0.42 g
Thymus Relative weight (/body weight) (Male, 450 mg/kg, d 56): 0.04 ± 0.01
Thymus Relative weight (/brain weight) (Male, 450 mg/kg, d 56): 3.25 ± 0.50
kidney Absolute weight (Male, 450 mg/kg, d 56): 18.75 ± 0.21 g
kidney Relative weight (/body weight) (Male, 450 mg/kg, d 56): 0.38 ± 0.02
kidney Relative weight (/brain weight) (Male, 450 mg/kg, d 56): 27.81 ± 1.42
absolute or relative weight of uterus (high-dose monkeys): lower
relative weight of liver and kidney (high-dose monkeys): Higher
relative weight of thymus (high-dose monkeys): lower
macroscopic findings related to administration (necropsy day 28 / day 56): no macroscopic findings for monkeys deemed related to administration of the test article except mild intestinal tympanites and thymus atrophy for the monkey that died early
